# Test results from US20250171423A1, “PHARMACEUTICAL COMPOUNDS FOR THE TREATMENT OF COMPLEMENT MEDIATED DISORDERS” (Achillion Pharmaceuticals, Inc., priority 2020, published 2025).
# Structures can show the parent of a compound that is named as a salt.
# Target: T1, Human complement C1s enzyme (Homo sapiens, UniProt P09871)
# T1 construct: purified from human serum, Complement Technology, Inc; purchased Complement Technology, Inc; host or cells: human serum
# T1 sequence (P09871 438-688 limits assumed): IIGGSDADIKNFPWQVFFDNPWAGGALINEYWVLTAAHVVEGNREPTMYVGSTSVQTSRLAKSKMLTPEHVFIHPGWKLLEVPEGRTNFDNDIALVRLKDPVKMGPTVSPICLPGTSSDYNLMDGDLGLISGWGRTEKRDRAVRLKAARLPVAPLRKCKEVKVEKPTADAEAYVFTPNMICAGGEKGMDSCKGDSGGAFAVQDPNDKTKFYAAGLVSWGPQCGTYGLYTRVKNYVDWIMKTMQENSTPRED
# T1 sequence (P09871 16-437 partner limits assumed): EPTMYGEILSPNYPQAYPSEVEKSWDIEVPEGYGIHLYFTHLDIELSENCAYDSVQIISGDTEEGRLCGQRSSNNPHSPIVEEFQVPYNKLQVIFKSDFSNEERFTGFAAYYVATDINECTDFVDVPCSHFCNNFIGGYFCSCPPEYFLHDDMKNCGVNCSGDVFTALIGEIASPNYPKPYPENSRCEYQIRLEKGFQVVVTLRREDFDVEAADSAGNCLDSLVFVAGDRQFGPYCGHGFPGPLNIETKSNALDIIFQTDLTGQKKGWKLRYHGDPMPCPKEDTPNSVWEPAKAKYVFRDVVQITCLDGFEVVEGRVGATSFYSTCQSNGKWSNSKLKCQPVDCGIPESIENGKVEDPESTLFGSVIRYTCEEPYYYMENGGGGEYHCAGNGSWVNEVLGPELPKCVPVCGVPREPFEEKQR
# Assay: Human C1s Enzyme Assay
# Assay type: biochemical
# Conditions: human C1s 1.16 nM, 5 min preincubation, substrate Z-L-Lys-SBzl 100 μM, A405; read-out: C1s Protease Activity
# Outline: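 C1s purified from human serum (1.16 nM final) was preincubated with compound for 5 min at room temperature in 50 mM Tris, 1 M NaCl, pH 7.5. Z-L-Lys-SBzl and DTNB were then added at 100 μM each, and A405 was followed for 30 min. IC50 came from nonlinear regression of reaction rates.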
row,SMILES,IC50 [nM]
1,"CN(C)C[C@@]1(F)C[C@@H](C(=O)NCc2cc(C(=N)N)cs2)N(C(=O)CNC(=O)CCCOc2ccccc2)C1 [Compound 129, (2S,4S)-N-[(4-carbamimidoylthiophen-2-yl)methyl]-4-[(dimethylamino)methyl]-4-fluoro-1-[2-(4-phenoxybutanamido)acetyl]pyrrolidine-2-carboxamide]",< 100
2,"C[C@@H](NC(=O)[C@@H]1C[C@@H](OC(F)F)CN1C(=O)CNC(=O)c1ccc(C(=O)c2ccccc2)cc1)c1cc(C(=N)N)cs1 [Compound 203, (2S,4R)-1-((4-benzoylbenzoyl)glycyl)-N-((R)-1-(4-carbamimidoylthiophen-2-yl)ethyl)-4-(difluoromethoxy)pyrrolidine-2-carboxamide]",< 100
3,"C[C@@H](NC(=O)[C@@H]1C[C@@H](S(C)(=O)=O)CN1C(=O)CNC(=O)c1ccc(Oc2ccccc2)cc1)c1cc(C(=N)N)cs1 [Compound 192, (2S,4R)-N-((R)-1-(4-carbamimidoylthiophen-2-yl)ethyl)-4-(methylsulfonyl)-1-((4-phenoxybenzoyl)glycyl)pyrrolidine-2-carboxamide]",< 100
4,"C[C@@]12C[C@@H]1N(C(=O)CNC(=O)c1ccc(Oc3ccccc3)cc1)[C@H](C(=O)N(O)Cc1cc(C(=N)N)cs1)C2 [Compound 127, (1S,3S,5S)-N-((4-carbamimidoylthiophen-2-yl)methyl)-N-hydroxy-5-methyl-2-((4-phenoxybenzoyl)glycyl)-2-azabicyclo[3.1.0]hexane-3-carboxamide]",> 1000
5,"CC(=O)NCCOC[C@@]12C[C@@H]1N(C(=O)CNC(=O)CCCOc1ccccc1)[C@H](C(=O)N[C@H](C)c1cc(C(=N)N)cs1)C2 [Compound 142, (1S,3S,5R)-5-((2-acetamidoethoxy)methyl)-N-((R)-1-(4-carbamimidoylthiophen-2-yl)ethyl)-2-((4-phenoxybutanoyl)glycyl)-2-azabicyclo[3.1.0]hexane-3-carboxamide]",100 to 1000
6,"C[C@H](O)[C@H](O)[C@@H](O)[C@@H](O)CNCC(=O)N1[C@H]2C[C@@]2(C)C[C@H]1C(=O)NCc1cc(C(=N)N)cs1 [Compound 24, (1S,3S,5S)-N-((4-carbamimidoylthiophen-2-yl)methyl)-5-methyl-2-(((2S,3S,4S,5S)-2,3,4,5-tetrahydroxyhexyl)glycyl)-2-azabicyclo[3.1.0]hexane-3-carboxamide hydrochloride]",> 1000
7,"C[C@@]12C[C@@H]1N(C(=O)CNC(=O)c1ccc3c(c1)-c1ccccc1C3(F)F)[C@H](C(=O)NCc1cc(C(=N)N)cs1)C2 [Compound 103, (1S,3S,5S)-N-((4-carbamimidoylthiophen-2-yl)methyl)-2-((9,9-difluoro-9H-fluorene-3-carbonyl)glycyl)-5-methyl-2-azabicyclo[3.1.0]hexane-3-carboxamide]",< 100
8,"C[C@@H](NC(=O)[C@@H]1CC2(CN1C(=O)CNC(=O)c1ccccc1)OCCO2)c1cc(C(=N)N)cs1 [Compound 264, (S)-7-(benzoylglycyl)-N-((R)-1-(4-carbamimidoylthiophen-2-yl)ethyl)-1,4-dioxa-7-azaspiro[4.4]nonane-8-carboxamide]",< 100
9,"C[C@@]12C[C@@H]1N(C(=O)CNC(=O)CCCOc1ccccc1C(=O)O)[C@H](C(=O)NCc1cc(C(=N)N)cs1)C2 [Compound 186, 2-(4-((2-((1S,3S,5S)-3-(((4-carbamimidoylthiophen-2-yl)methyl)carbamoyl)-5-methyl-2-azabicyclo[3.1.0]hexan-2-yl)-2-oxoethyl)amino)-4-oxobutoxy)benzoic acid]",< 100
10,"N=C(N)c1csc(CNC(=O)[C@@H]2C[C@](F)(CN)CN2C(=O)CNC(=O)CCCOc2ccccc2)c1 [Compound 109, (2S,4S)-4-(aminomethyl)-N-((4-carbamimidoylthiophen-2-yl)methyl)-4-fluoro-1-((4-phenoxybutanoyl)glycyl)pyrrolidine-2-carboxamide]",< 100
11,"C[C@@H](NC(=O)[C@@H]1C[C@@]23COCCCCCCCCCCCCc4cc(ccc4Oc4ccc(F)cc4)C(=O)NCC(=O)N1[C@H]2C3)c1cc(C(=N)N)cs1 [Compound 257, (1R,26S,29S)-N-[(1R)-1-(4-carbamimidoylthiophen-2-yl)ethyl]-17-(4-fluorophenoxy)-21,24-dioxo-3-oxa-22,25-diazatetracyclo[23.2.2.1^16,^20.0^1,^26]triaconta-16,18,20(30)-triene-29-carboxamide]",> 1000
12,"C[C@@H](NC(=O)[C@@H]1C[C@]2(C)C[C@@H]2N1C(=O)CNC(=O)CCCOc1ccccc1)c1cc(C(=N)N)cs1 [Compound 122, (1S,3S,5S)-N-((R)-1-(4-carbamimidoylthiophen-2-yl)ethyl)-5-methyl-2-((4-phenoxy-butanoyl)glycyl)-2-azabicyclo[3.1.0]hexane-3-carboxamide]",< 100
13,"N=C(N)c1csc([C@H](NC(=O)[C@@H]2CC3(CN2C(=O)CNC(=O)CCCOc2ccccc2)OCCO3)c2ccccc2)c1 [Compound 175, (S)-N-((R)-(4-carbamimidoylthiophen-2-yl)(phenyl)methyl)-7-((4-phenoxybutanoyl)glycyl)-1,4-dioxa-7-azaspiro[4.4]nonane-8-carboxamide]",> 1000
14,"C[C@@]12C[C@@H]1N(C(=O)CNC(=O)c1ccc(C3(c4ccccc4)COC3)cc1)[C@H](C(=O)NCc1cc(C(=N)N)cs1)C2 [Compound 168, (1S,3S,5S)-N-((4-carbamimidoylthiophen-2-yl)methyl)-5-methyl-2-((4-(3-phenyloxetan-3-yl)benzoyl)glycyl)-2-azabicyclo[3.1.0]hexane-3-carboxamide]",< 100
15,C[C@@]12C[C@@H]1N(C(=O)CNC(=O)c1ccc(Oc3ccccc3)cc1)[C@H](C(=O)NCc1ccc(C(=N)N)cn1)C2 [Compound 4],100 to 1000
16,"Cc1sc(CNC(=O)[C@@H]2C[C@]3(C)C[C@@H]3N2C(=O)CNC(=O)CCCOc2ccccc2)cc1C(=N)N [Compound 216, (1S,3S,5S)-N-((4-carbamimidoyl-5-methylthiophen-2-yl)methyl)-5-methyl-2-((4-phenoxybutanoyl)glycyl)-2-azabicyclo[3.1.0]hexane-3-carboxamide]",> 1000
17,"C[C@@H](NC(=O)[C@@H]1CC2(CN1C(=O)CNC(=O)CCCOc1ccccc1)OCCO2)c1ccc(C(=N)N)s1 [Compound 133, (S)-N-((R)-1-(5-carbamimidoylthiophen-2-yl)ethyl)-7-((4-phenoxybutanoyl)glycyl)-1,4-dioxa-7-azaspiro[4.4]nonane-8-carboxamide]",< 100
18,"N=C(N)c1csc(CNC(=O)[C@@H]2C[C@@H](C(F)F)CN2C(=O)CNC(=O)c2ccc(Oc3ccccc3)cc2)c1 [Compound 151, (2S,4R)-N-((4-carbamimidoylthiophen-2-yl)methyl)-4-(difluoromethyl)-1-((4-phenoxybenzoyl)glycyl)pyrrolidine-2-carboxamide]",< 100
19,"C[C@@H](NC(=O)[C@@H]1C[C@@H](OC(F)F)CN1C(=O)CNC(=O)c1ccc(Oc2ccccc2)cc1)c1cc(C(=N)N)cs1 [Compound 172, (2S,4R)-N-((R)-1-(4-carbamimidoylthiophen-2-yl)ethyl)-4-(difluoromethoxy)-1-((4-phenoxybenzoyl)glycyl)pyrrolidine-2-carboxamide]",< 100
20,"CO[C@@H]1C[C@@H](C(=O)N[C@H](C)c2cc(C(=N)N)cs2)N(C(=O)CNC(=O)CCCOc2ccccc2)C1 [Compound 106, (2S,4R)-N-((R)-1-(4-carbamimidoylthiophen-2-yl)ethyl)-4-methoxy-1-((4-phenoxy-butanoyl)glycyl)pyrrolidine-2-carboxamide]",< 100
21,"N=C(N)c1csc(CNC(=O)[C@@H]2C[C@@H](C3CCCCC3)CN2C(=O)CNC(=O)c2ccc(Oc3ccccc3)cc2)c1 [Compound 61, (2S,4S)-N-((4-carbamimidoylthiophen-2-yl)methyl)-4-cyclohexyl-1-((4-phenoxy-benzoyl)glycyl)pyrrolidine-2-carboxamide]",100 to 1000
22,"C[C@@H](NC(=O)[C@@H]1C[C@H](C2CCCCC2)CN1C(=O)CNC(=O)CCCOc1ccccc1)c1cc(C(=N)N)cs1 [Compound 243, (2S,4R)-N-((R)-1-(4-carbamimidoylthiophen-2-yl)ethyl)-4-cyclohexyl-1-((4-phenoxybutanoyl)glycyl)pyrrolidine-2-carboxamide]",< 100
23,"N=C(N)c1csc([C@@H](NC(=O)[C@@H]2CC3(CN2C(=O)CNC(=O)CCCOc2ccccc2)OCCO3)C2CC2)c1 [Compound 178, (S)-N-((S)-(4-carbamimidoylthiophen-2-yl)(cyclopropyl)methyl)-7-((4-phenoxybutanoyl)glycyl)-1,4-dioxa-7-azaspiro[4.4]nonane-8-carboxamide]",> 1000
24,"C[C@@]12C[C@@H]1N(C(=O)CNC(=O)CCCOc1cccc(C(=O)O)c1)[C@H](C(=O)NCc1cc(C(=N)N)cs1)C2 [Compound 165, 3-(4-((2-((1S,3S,5S)-3-(((4-carbamimidoylthiophen-2-yl)methyl)carbamoyl)-5-methyl-2-azabicyclo[3.1.0]hexan-2-yl)-2-oxoethyl)amino)-4-oxobutoxy)benzoic acid]",< 100
